Test results taken from patent US10385045B2, “Compound having EP2 agonist activity” (ONO PHARMACEUTICAL CO., LTD., priority 2015, dated 2019).

system: not listed separately; test: Intraocular pressure lowering activity after ocular instillation in rabbit; format: in vivo; conditions: male rabbit (NZW), ocular instillation 30 μL, administration concentration 10 μg/mL, 8 hours after the administration
Method: As can be easily understood by a person skilled in the art, in an in vivo test, since regarding all test compounds, carboxylic acid which is an active body has poor corneal permeability, pharmacological action of the active body was evaluated by ocular instillation administration of a compound which had been converted into an ester such as an ethyl ester or an isopropyl ester, or an alcohol.
A test compound-containing solution (30 μL) which had been adjusted to each of various concentrations was ocular instillation-administered to the left or right eye of a male rabbit (NZW (Healthy)) under consciousness, and an intraocular pressure was measured before the administration and 8 hours after the administration. An intraocular pressure before the administration was measured on a day before the administration. In measurement of an intraocular pressure, the rabbit was fixed on a wood-made restrainer, and the rabbit was anesthetized by the ocular instillation-administration of an ocular surface anesthetic agent (Benoxil eye drops 0.4%, Santen Pharmaceutical Co., Ltd.). After fitting a blepharostat (Handaya Co., Ltd.) to the rabbit, intraocular pressures of both eyes were measured (6 cases per group) with a pneumatic applanation flat tonometer (Model 30 Classic, REICHERT). A difference between an intraocular pressure value before the administration of a test compound and an intraocular pressure value after the administration of the test compound was calculated as an intraocular pressure lowering rate in accordance with the equation shown below, and the sustainability of intraocular eye lowering action was evaluated.
The administered concentrations were selected on the basis of the EP2 agonist activities measured by the above-mentioned method.

**Q.** For `Cc1cc(OCC[C@@H]2[C@H]3CC[C@H](c4nc(C(=O)OC(C)C)cs4)O[C@H]3C[C@H]2O)ccc1[N+](=O)[O-]` [Example 14, Isopropyl 2-{(2R,4aR,5R,6R,7aS)-6-hydroxy-5-[2-(3-methyl-4-nitrophenoxy)ethyl]octahydrocyclopenta[b]pyran-2-yl}-1,3-thiazole-4-carboxylate], which “Intraocular pressure lowering rate (%)” value is on record?
**A.** Its value is 23.6%.

**Q.** For `CC(C)OC(=O)c1csc([C@H]2CC[C@@H]3[C@@H](/C=C/COc4ccccc4C(F)(F)F)[C@H](O)C[C@@H]3O2)n1` [Example 4-3, Isopropyl 2-[(2R,4aR,5R,6R,7aS)-6-hydroxy-5-{(1E)-3-[2-(trifluoromethyl)phenoxy]-1-propen-1-yl}octahydrocyclopenta[b]pyran-2-yl]-1,3-thiazole-4-carboxylate], which “Intraocular pressure lowering rate (%)” value is on record?
**A.** Its value is 12.1%.

**Q.** Which “Intraocular pressure lowering rate (%)” value does the source give for `COc1ccc(OCCC/C=C/[C@@H]2[C@H]3CC[C@H](c4nc(C(=O)OC(C)C)cs4)O[C@H]3C[C@H]2O)cc1` [Example 4, Isopropyl 2-{(2R,4aR,5R,6R,7aS)-6-hydroxy-5-[(1E)-5-(4-methoxyphenoxy)-1-penten-1-yl]octahydrocyclopenta[b]pyran-2-yl}-1,3-thiazole-4-carboxylate] here?
**A.** The value was 19.1%.

target: T1, human EP2 receptor (Homo sapiens, UniProt P43116); test: Measurement of EP2 agonist activity (cAMP concentration) in EP2-CHO cells; format: cell-based; conditions: EP2-CHO cells, cAMP production, 30 minutes at room temperature; read-out: EC50 (agonist activity on human EP2 receptor)
T1 construct: expressed in transfected cells; host or cells: CHO cells (EP2-CHO)
T1 sequence (P43116 whole entry): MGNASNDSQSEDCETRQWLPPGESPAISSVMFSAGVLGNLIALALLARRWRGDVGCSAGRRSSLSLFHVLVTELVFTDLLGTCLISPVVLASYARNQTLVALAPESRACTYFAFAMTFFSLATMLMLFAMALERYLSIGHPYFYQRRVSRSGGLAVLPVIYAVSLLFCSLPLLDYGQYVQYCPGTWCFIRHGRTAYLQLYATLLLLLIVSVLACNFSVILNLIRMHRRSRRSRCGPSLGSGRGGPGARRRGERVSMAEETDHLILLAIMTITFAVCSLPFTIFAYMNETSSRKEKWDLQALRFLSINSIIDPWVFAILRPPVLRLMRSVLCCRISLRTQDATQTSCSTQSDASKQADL
Method: (1) Measurement of Agonist Activity on Various Prostanoid Receptors
Using Chem1 cells or CHO cells in which various prostanoid receptors were forcibly expressed, respectively, agonist activities of test compounds on various prostanoid receptors was determined employing, as a measure, an intracellular cyclic AMP (hereinbelow, abbreviated as “cAMP”) production amount or an intracellular calcium concentration.
Each of the test compound and a control substance (PGE2 and PGF2α) was dissolved in dimethyl sulfoxide (DMSO) to prepare a 10 mmol/L solution. The 10 mmol/L solution thus prepared was thawed upon use, was then serially diluted with DMSO, and was then diluted with a buffered solution for measurement or a buffered solution for measurement 2, and then the resulting solution was subjected to an experiment.
Cells, in which various prostanoid receptors were respectively forcibly expressed, were subjected to static culture at 37° C. in the presence of 5% CO2 using a DMEM medium (Sigma) (for culturing FP-Chem1 cells) containing inactivated (56° C., 30 minutes) 9.8 vol % nondialysed-FBS (Life Technologies), 1 vol % Non Essential Amino Acids (Life Technologies), 10 mmol/L HEPES Buffered solution (Life Technologies), 0.5 vol % GENETICIN (Life Technologies) and 1% penicillin-streptomycin (Life Technologies) or an α-MEM medium (Sigma) (for culturing EP2-CHO cells) containing inactivated (56° C., 30 minutes) 9.8 vol % dialysed-FBS (Life Technologies) and penicillin-streptomycin-glutamine (Life Technologies). Subculturing was carried out in the following manner.
The medium was removed from a culture, and the culture was washed with Ca^2+-free and Mg^2+-free phosphate-buffered physiological saline one time. A proper amount of trypsin-EDTA (Life Technologies) was added to the washed product, and then the resultant product was incubated at 37° C. The cells were detached, and then a medium in a volume that is 10-fold the volume of trypsin-EDTA was added thereto to terminate the enzymatic reaction. The cells were collected in a centrifuge tube and then centrifuged at room temperature at 120 g for 3 minutes, and the supernatant was discarded therefrom. The cells were suspended in a proper amount of the medium and seeded in a culture flask.
On the day of measurement, a medium was removed and EP2-CHO cells were washed one time with a phosphate-buffered physiological saline containing 2 mmol/L EDTA and not containing Ca^2+ and Mg^2+. A proper amount of the phosphate-buffered physiological saline containing 2 mmol/L EDTA and not containing Ca^2+ and Mg^2+ was added to the cells, and this was incubated at 37° C. in the presence of 5% CO2. Subsequently, the cells were detached, then collected in a centrifuge tube and then centrifuged at room temperature at 550 g for 3 minutes, and the supernatant was removed therefrom. The cells were suspended in a proper amount of a buffered solution for measurement 1 (a MEM medium (Invitrogen) containing 1.0 w/v % of bovine serum albumin (Sigma) and 2 μmol/L of diclofenac (Sigma)), and the suspension was centrifuged at room temperature at 200 g for 3 minutes, and the supernatant was removed. The cells were suspended in a buffered solution for measurement 2 (MEM medium (Invitrogen) containing 1.0 w/v % of bovine serum albumin (Sigma), 2 μmol/L of diclofenac (Sigma) and 1 mmol/L of 3-isobutyl-1-methylxanthine), and each 25 μL of the suspension was dispensed into a 96-well ½ area plate so that the number of cells per well became […]. The buffered solution for measurement 2 (25 μL) containing a compound at each of various concentrations was added to each well to carry out a reaction at room temperature for 30 minutes. Measurement of a cAMP concentration was carried out using cAMP HTRF HiRange kit (CIS bio International). In accordance with the two-step protocol of the kit manual, each 25 μL of cAMP-D2 and Cryptase each diluted with a lysis buffer were added. […]

**Q.** For `N#Cc1ccc(CCC(O)/C=C/[C@@H]2[C@H]3CC[C@H](c4nc(C(=O)O)cs4)O[C@H]3C[C@H]2O)cc1` (stereo partly drawn) [Example 10, 2-{(2R,4aR,5R,6R,7aS)-5-[(1E)-5-(4-Cyanophenyl)-3-hydroxy-1-penten-1-yl]-6-hydroxyoctahydrocyclopenta[b]pyran-2-yl}-1,3-thiazole-4-carboxylic acid], which EC50 is on record?
**A.** The EC50 was 0.29 nM.

**Q.** Which EC50 does the source give for `O=C(O)c1csc([C@H]2CC[C@@H]3[C@@H](/C=C/CCCOc4ccccc4)[C@H](O)C[C@@H]3O2)n1` [Example 2-4, 2-{(2R,4aR,5R,6R,7aS)-6-Hydroxy-5-[(1E)-5-phenoxy-1-penten-1-yl]octahydrocyclopenta[b]pyran-2-yl}-1,3-thiazole-4-carboxylic acid] here?
**A.** The EC50 was 14 nM.

**Q.** For `COc1ccc(OCCC/C=C/[C@@H]2[C@H]3CC[C@H](c4nc(C(=O)O)cs4)O[C@H]3C[C@H]2O)cc1` [Example 2-1, 2-{(2R,4aR,5R,6R,7aS)-6-Hydroxy-5-[(1E)-5-(4-methoxyphenoxy)-1-penten-1-yl]octahydrocyclopenta[b]pyran-2-yl}-1,3-thiazole-4-carboxylic acid], which EC50 is on record?
**A.** The EC50 was 1.8 nM.

**Q.** Which EC50 does the source give for `O=C(O)c1csc([C@H]2CC[C@@H]3[C@@H](/C=C/COc4ccccc4C(F)(F)F)[C@H](O)C[C@@H]3O2)n1` [Example 2-16, 2-[(2R,4aR,5R,6R,7aS)-6-Hydroxy-5-{(1E)-3-[2-(trifluoromethyl)phenoxy]-1-propen-1-yl}octahydrocyclopenta[b]pyran-2-yl]-1,3-thiazole-4-carboxylic acid] here?
**A.** Its EC50 is 1.3 nM.

**Q.** For `Cc1cc(OCC[C@@H]2[C@H]3CC[C@H](c4nc(C(=O)O)cs4)O[C@H]3C[C@H]2O)ccc1[N+](=O)[O-]` [Example 13-20, 2-{(2R,4aR,5R,6R,7aS)-6-Hydroxy-5-[2-(3-methyl-4-nitrophenoxy)ethyl]octahydrocyclopenta[b]pyran-2-yl}-1,3-thiazole-4-carboxylic acid], which EC50 is on record?
**A.** The EC50 was 5.7 nM.

**Q.** For `Cc1ccc(OC/C=C/[C@@H]2[C@H]3CC[C@H](c4nc(C(=O)O)cs4)O[C@H]3C[C@H]2O)cc1` [Example 2-9, 2-{(2R,4aR,5R,6R,7aS)-6-Hydroxy-5-[(1E)-3-(4-methylphenoxy)-1-propen-1-yl]octahydrocyclopenta[b]pyran-2-yl}-1,3-thiazole-4-carboxylic acid], which EC50 is on record?
**A.** The EC50 was 5.8 nM.

**Q.** With `CCCCCC(F)(F)/C=C/[C@@H]1[C@H]2CC[C@H](c3nc(C(=O)O)cs3)O[C@H]2C[C@H]1O` [Example 8, 2-{(2R,4aR,5R,6R,7aS)-5-[(1E)-3,3-Difluoro-1-octen-1-yl]-6-hydroxyoctahydrocyclopenta[b]pyran-2-yl}-1,3-thiazole-4-carboxylic acid] as the compound, how does the EC50 read?
**A.** Its EC50 is 0.4 nM.

**Q.** With `O=C(O)c1csc([C@H]2CC[C@@H]3[C@@H](/C=C/CCOc4ccccc4)[C@H](O)C[C@@H]3O2)n1` [Example 2-2, 2-{(2R,4aR,5R,6R,7aS)-6-Hydroxy-5-[(1E)-4-phenoxy-1-buten-1-yl]octahydrocyclopenta[b]pyran-2-yl}-1,3-thiazole-4-carboxylic acid] as the compound, how does the EC50 read?
**A.** Its EC50 is 3.9 nM.

**Q.** For `CCC1([C@@H](O)C/C=C/[C@@H]2[C@H]3CC[C@H](c4nc(C(=O)O)cs4)O[C@H]3C[C@H]2O)CCC1` [Example 11-2, 2-{(2R,4aR,5R,6R,7aS)-5-[(1E,4S)-4-(1-Ethylcyclobutyl)-4-hydroxy-1-buten-1-yl]-6-hydroxyoctahydrocyclopenta[b]pyran-2-yl}-1,3-thiazole-4-carboxylic acid], which EC50 is on record?
**A.** The EC50 was 0.1 nM.

**Q.** Which EC50 does the source give for `O=C(O)c1csc([C@H]2CC[C@@H]3[C@@H](/C=C/C(O)CCC4CCCC4)[C@H](O)C[C@@H]3O2)n1` (stereo partly drawn) [Example 10-3, 2-{(2R,4aR,5R,6R,7aS)-5-[(1E)-5-Cyclopentyl-3-hydroxy-1-penten-1-yl]-6-hydroxyoctahydrocyclopenta[b]pyran-2-yl}-1,3-thiazole-4-carboxylic acid] here?
**A.** The EC50 was 0.11 nM.

same assay, conditions: comparison compounds from prior art documents; read-out: EC50 (EP2 agonist activity) of prior art compounds with analogous structure

**Q.** Which EC50 does the source give for `O=C(O)c1csc([C@H]2CC[C@@H]3[C@@H](/C=C/[C@@H](O)COc4ccccc4)[C@H](O)C[C@@H]3OC2)n1` [reference compound] here?
**A.** Its EC50 is ≥ 10000 nM.

**Q.** Which EC50 does the source give for `CCCCC[C@H](O)/C=C/[C@@H]1[C@H]2CCC(c3ccccc3CC(=O)O)O[C@H]2C[C@H]1O` (stereo partly shown) [reference compound] here?
**A.** The EC50 was ≥ 10000 nM.

**Q.** With `O=C(O)c1ccc(C2=CC[C@@H]3[C@@H](/C=C/[C@@H](O)C4CCCC4)[C@H](O)C[C@@H]3O2)o1` [reference compound] as the compound, how does the EC50 read?
**A.** Its EC50 is ≥ 10000 nM.
